{
  "source": "patent US20060110790A1",
  "about": "“Expression system for large functional proteins” (priority 2002, published 2006)",
  "biological_target": "T1, N-half co-expressed with the K1978M C-half mutant of ABCR (Homo sapiens, UniProt P78363, K1978M)",
  "T1 construct": "The cDNAs coding for the N-half (amino acids 1-1325) and C-half (amino acids 1326-2273) of ABCR; made in house",
  "T1 sequence (P78363 1-1325)": "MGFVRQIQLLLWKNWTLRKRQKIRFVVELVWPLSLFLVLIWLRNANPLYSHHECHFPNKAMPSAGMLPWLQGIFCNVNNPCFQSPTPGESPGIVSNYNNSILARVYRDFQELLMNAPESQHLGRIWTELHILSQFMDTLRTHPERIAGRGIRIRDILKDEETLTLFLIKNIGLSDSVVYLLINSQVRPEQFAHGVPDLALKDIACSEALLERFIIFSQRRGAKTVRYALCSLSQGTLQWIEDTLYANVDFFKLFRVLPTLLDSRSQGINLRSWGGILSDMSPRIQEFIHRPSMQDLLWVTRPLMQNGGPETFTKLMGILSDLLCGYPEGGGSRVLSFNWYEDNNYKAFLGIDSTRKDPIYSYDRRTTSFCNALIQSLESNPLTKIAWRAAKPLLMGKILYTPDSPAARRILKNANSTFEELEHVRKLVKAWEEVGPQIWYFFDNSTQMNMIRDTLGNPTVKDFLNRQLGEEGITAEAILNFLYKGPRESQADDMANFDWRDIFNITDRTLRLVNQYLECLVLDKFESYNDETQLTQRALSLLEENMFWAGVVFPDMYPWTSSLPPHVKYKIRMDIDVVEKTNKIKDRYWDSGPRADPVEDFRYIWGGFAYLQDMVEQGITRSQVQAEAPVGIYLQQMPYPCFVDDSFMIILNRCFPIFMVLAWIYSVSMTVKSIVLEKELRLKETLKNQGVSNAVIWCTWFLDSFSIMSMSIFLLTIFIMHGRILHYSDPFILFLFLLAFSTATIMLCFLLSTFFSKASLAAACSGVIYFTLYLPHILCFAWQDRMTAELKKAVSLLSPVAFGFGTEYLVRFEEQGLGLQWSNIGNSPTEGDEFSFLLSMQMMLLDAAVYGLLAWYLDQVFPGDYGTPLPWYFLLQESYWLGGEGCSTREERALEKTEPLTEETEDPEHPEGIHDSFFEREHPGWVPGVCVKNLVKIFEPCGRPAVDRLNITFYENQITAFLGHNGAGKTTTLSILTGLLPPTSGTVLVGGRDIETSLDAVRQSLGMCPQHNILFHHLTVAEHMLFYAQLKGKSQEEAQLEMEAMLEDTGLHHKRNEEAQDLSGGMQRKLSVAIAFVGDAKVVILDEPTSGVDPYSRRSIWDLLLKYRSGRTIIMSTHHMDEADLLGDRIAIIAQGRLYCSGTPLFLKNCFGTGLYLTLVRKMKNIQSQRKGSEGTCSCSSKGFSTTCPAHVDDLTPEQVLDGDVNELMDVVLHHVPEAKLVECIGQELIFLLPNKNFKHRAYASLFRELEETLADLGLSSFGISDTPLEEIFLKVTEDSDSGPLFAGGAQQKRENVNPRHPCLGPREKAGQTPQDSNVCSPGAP",
  "T1 sequence (P78363 1326-2273 K1978M)": "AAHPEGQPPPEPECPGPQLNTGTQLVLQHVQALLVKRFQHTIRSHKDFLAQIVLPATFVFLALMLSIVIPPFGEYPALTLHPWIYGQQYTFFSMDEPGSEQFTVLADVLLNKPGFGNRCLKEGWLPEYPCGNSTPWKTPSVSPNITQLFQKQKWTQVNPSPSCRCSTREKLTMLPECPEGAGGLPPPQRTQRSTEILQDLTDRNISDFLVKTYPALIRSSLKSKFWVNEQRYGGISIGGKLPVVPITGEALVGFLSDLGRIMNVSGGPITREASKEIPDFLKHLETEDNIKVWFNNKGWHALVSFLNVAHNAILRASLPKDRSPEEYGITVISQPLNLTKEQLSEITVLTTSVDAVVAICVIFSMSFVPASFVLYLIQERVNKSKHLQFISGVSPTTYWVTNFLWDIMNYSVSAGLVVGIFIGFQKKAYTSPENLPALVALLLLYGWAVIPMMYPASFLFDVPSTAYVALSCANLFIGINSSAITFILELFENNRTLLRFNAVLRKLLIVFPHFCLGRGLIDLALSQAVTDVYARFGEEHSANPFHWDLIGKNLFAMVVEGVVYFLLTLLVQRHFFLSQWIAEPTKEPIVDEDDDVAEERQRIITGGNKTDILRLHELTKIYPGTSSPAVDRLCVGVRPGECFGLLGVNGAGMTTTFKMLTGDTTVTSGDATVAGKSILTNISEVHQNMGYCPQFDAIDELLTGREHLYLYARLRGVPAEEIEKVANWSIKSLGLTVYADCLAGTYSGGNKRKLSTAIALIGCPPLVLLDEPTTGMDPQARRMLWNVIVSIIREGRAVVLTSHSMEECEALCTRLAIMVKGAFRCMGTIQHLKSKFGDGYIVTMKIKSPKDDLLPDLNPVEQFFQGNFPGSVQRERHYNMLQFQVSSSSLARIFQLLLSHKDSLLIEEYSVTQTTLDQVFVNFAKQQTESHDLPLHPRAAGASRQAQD",
  "assay": "ATPase activity of Walker A lysine-to-methionine mutants",
  "format": "biochemical",
  "settings": "50 μM all-trans retinal",
  "procedure": "FIG. 4. Lysine to methionine Walker A mutations in ABCR abolish ATP hydrolysis but not ATP binding. A. ATPase activity was measured in the absence (white bars) or presence of 50 μM all-trans retinal (grey bars). WT, wild-type; K969M in NBD1; K1978M in NBD2; MM, K969M/K1978M double mutant; NCM, N-half co-expressed with C-half containing a K1978M mutation. B. ATP photoaffinity labeling was carried out by irradiating membranes from COS-1 cells expressing wild-type (WT), K969M, K1978M, or K969M/K1978M double mutant (MM) with 3 μM 8-azido-[α-^32P]ATp. The labeled protein was isolated with Rim3F4-Sepharose and separated on SDS gels. Left panel: gel stained with Coomassie blue. Right panel: corresponding ^32P labeling obtained with a phosphorimager. All mutant proteins were labeled with 8-azido-[α-^32P]ATP, but the double mutant bound less nucleotide.\nATPase activity was measured as described previously (Ahn, J., Wong, J. T., and Molday, R. S. (2000) J Biol Chem 275(27), 20399-405) using 50 μM [α^32P]ATP and thin layer chromatography. The all-trans retinal concentration was determined spectrophotometrically (λ383 nm=42.88 mM^−1 cm^−1). Protein concentration was estimated from the eluate before reconstitution by laser densitometry of Coomassie blue stained gels using bovine serum albumin as a standard. […]",
  "data": [
    {"smiles": "CC1=C(/C=C/C(C)=C/C=C/C(C)=C/C=O)C(C)(C)CCC1", "note": "[all-trans retinal]", "values": [
      {"measurement": "retinal-stimulated ATPase activity", "result": "abolished"}
    ]}
  ]
}
